# Laboratory results taken from patent publication US12606508B2, “Cannabis extracts and uses thereof” (priority 2020, dated 2026).
# What was measured:
# human CB1 receptor = molecular target: T1, human CB1 receptor (Homo sapiens, UniProt P21554); experiment: Radioligand binding assay at human CB1 receptor ([^3H]CP55940 displacement, Eurofins Discovery); conditions: for Ki: Cheng Prusoff from IC50, [^3H]CP55940 radioligand, read-out: hCB1 Ki; for times more active than (−)-trans-Δ^9-THCV against CB1 receptor: comparator Δ^9-THCV (Ki 75.4 nM, literature); for times more active than (−)-trans-Δ^9-THC against CB1 receptor: comparator Δ^9-THC (Ki=40 nM, literature)
# T1 construct: Eurofins Discovery (contract assay)
# Description: 2.2.4 Binding affinity at human CB1 and CB2 receptors. The binding affinity of (−)-trans-Δ^9-THCB against purified human CB1 and CB2 receptors was determined in a radioligand binding assay. The capability of the ligand to displace radiolabeled [^3H] […] Binding at CB1 and CB2 Receptors. The binding affinity of (−)-trans-Δ^9-THCB against human CB1 and CB2 receptors was determined in a radioligand binding assay performed by Eurofins Discovery. The compound was tested at ten concentrations, ranging from 1 nM to 30 μM, in duplicate. The compound binding was calculated as a % inhibition of the binding of a radioactively labeled ligand specific for each target. […] The results were expressed as a percent inhibition of control specific binding obtained in the presence of the tested compounds using eq. 1.
# The IC50 values (concentration causing a half-maximal inhibition of control specific binding) were determined by non-linear regression analysis of the competition curves generated with mean replicate values (eq. 2)^55.
# Where Y is the specific binding, A is the left asymptote of the curve, D is the right asymptote f the curve, C is the compound concentration, C50 is the IC50 value and nH is the slope factor. […] The inhibition constants (Ki) were calculated using the Cheng Prusoff equation: […]
# 3.1.4 Binding affinity at human CB1 and CB2 receptors. […] The binding affinity of (−)-trans-Δ^9-THCP against human CB1 and CB2 receptors was assessed by Eurofins Discovery using a radioligand binding assay. […] Eq. 1 was employed to calculate the percent inhibition of control specific binding obtained in the presence of the tested compounds.
# A non-linear regression analysis of the competition curves generated with mean replicate values (eq. 2) was used to calculate the IC50 values (concentration causing a half-maximal inhibition of control specific binding)^51.
# Where Y is the specific binding, A is the left asymptote of the curve, D is the right asymptote f the curve, C is the compound concentration, C50 is the IC50 value and nH is the slope factor. […] The inhibition constants (Ki) were determined using the Cheng Prusoff equation (eq. 3):
# [formula] • where L is the concentration of the radioligand, and KD is the affinity of the radioligand for the receptor.
# C57BL6/J mice [1] = experiment: Tetrad: body (rectal) temperature test; assay type: in vivo; conditions: mean±SEM; for change in rectal temperature: 50 min after administration vs basal, n=4, vehicle 0.53; for change in body temperature: difference to basal temperature, n=5, vehicle 0.40
# Description: (§1) Mice (n=4) were treated with Δ^9-THCB (10 and 20 mg/kg) or vehicle (0.9% saline and 0.05% DMSO) by intraperitoneal (i.p.) administration. Mice were evaluated for hypomotility (open field test), hypothermia (body temperature test), antinociceptive (hot plate test), and cataleptic effects (bar test), using the tetrad tests as described in the protocol by Metna-Laurent M. et al.^62 Statistical analysis was performed using the Kruskall-Wallis test and Dunn's post hoc tests.
# Body temperature test. A probe was gently inserted for 1 cm into the mouse rectum after the animal had been immobilized. The probe was washed and cleaned with 70% ethanol and the dried with a paper towel. The body temperature was measured after stabilization of the value in ° C. in basal conditions and at 50 minutes after drug or vehicle administration.
# (§2) Male C57BL6/J mice (7 weeks old; n=5) were treated with Δ^9-THCP (10, 5 and 2.5 mg/kg) or vehicle (1:1:18; ethanol:Kolliphor EL:0.9% saline) by i.p. administration. Mice were evaluated for hypomotility (open field test), hypothermia (body temperature), antinociceptive (hot plate test), and cataleptic (bar test) effects, using the tetrad tests^58. Statistical analysis was performed using the Kruskall-Wallis test and Dunn's post hoc tests.
# Body temperature. The mouse was immobilized and the probe gently inserted for 1 cm into the rectum until stabilization of temperature. Between each mouse the probe was cleaned with 70% ethanol and dried with paper towel.
# C57BL6/J mice [2] = experiment: Tetrad: open field test (spontaneous/motor activity); assay type: in vivo; conditions: mean±SEM
# Description: as §1
# Open field test. The open field test (OFT) was performed 30 min after drug or vehicle injection. The apparatus was cleaned before each test using a 70% EtOH solution. After randomly assigning naïve mice to a treatment group, the operator started to record animal behaviors, which were stored and analyzed using an automated behavioral tracking system (Smart v3.0, Panlab Harvard Apparatus). Mice were placed in an OFT arena (1×w×h: 44 cm×44 cm×30 cm), and ambulatory activity (total distance travelled in cm), was recorded for 15 min and analyzed.
# as §2
# Openfield. The open field test was used for the evaluation of motor activity. Behavioral assays were performed 30 min after drug (or vehicle) injection. The apparatus was cleaned before each behavioral session by solution of 70% ethanol. Naïve mice were randomly assigned to a treatment group. Behaviors were recorded, stored, and analyzed using an automated behavioral tracking system (Smart v3.0, Panlab Harvard Apparatus). Mice were placed in an OFT arena (1×w×h: 25 cm×25 cm), and ambulatory activity (total distance travelled in centimeter), were recorded for 15 minutes and analyzed.
# C57BL6/J mice [3] = experiment: Tetrad: bar test (catalepsy); assay type: in vivo; conditions: mean±SEM
# Description: as §1
# Bar test. The bar used was a 40 cm long and 0.4 cm wide in diameter glass rod, which was horizontally elevated by 5 cm above the surface. Both forelimbs of the mouse were positioned on the bar and its hind legs on the floor of the cage, ensuring that the animal was not lying down on the floor. The chronometer was stopped when the mouse descended from the bar (i.e., when the two forepaws touched the floor) or after the 10 min cut-off time. Catalepsy was measured as the time duration each mouse held the bar by both his forelimbs (latency for moving in seconds).
# as §2
# Bar test. The bar test was used for the evaluation of catalepsy. Bar was a 40 cm in length and 0.4 cm in diameter glass rod, which was horizontally elevated by 5 cm above the surface. Both forelimbs of mice were positioned on the bar and its hind legs on the floor of the cage, ensuring that the mouse was not lying down on the floor. The chronometer was stopped when the mouse descends from the bar (i.e., when the two forepaws touched the floor) or when 10 min have elapsed (i.e., cut-off time). Catalepsy was measured as the time duration each mouse held the elevated bar by both his forelimbs (latency for moving in seconds).
# T1 sequence (P21554 whole entry): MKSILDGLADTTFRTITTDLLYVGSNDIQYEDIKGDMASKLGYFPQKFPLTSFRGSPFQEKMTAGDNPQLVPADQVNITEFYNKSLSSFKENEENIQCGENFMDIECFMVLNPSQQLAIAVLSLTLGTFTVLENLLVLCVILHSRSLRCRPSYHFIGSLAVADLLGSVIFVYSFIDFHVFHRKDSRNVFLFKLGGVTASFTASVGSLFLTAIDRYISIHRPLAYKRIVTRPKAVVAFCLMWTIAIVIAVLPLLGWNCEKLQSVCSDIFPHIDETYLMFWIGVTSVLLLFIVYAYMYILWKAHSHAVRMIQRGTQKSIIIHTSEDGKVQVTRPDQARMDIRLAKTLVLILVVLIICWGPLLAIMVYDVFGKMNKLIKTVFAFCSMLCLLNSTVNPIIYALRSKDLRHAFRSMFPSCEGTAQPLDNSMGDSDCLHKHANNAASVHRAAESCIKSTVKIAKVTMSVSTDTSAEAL
compound,measurement,setting,value
"CCCCc1cc(O)c2c(c1)OC(C)(C)[C@@H]1CCC(C)=C[C@@H]21 [Δ^9-THCB, (6aR,10aR)-3-butyl-6,6,9-trimethyl-6a,7,8,10a-tetrahydro-6H-benzo[c]chromen-1-ol]",Ki,human CB1 receptor,15 nM
same,IC50,"human CB1 receptor; displacement of [^3H]CP55940, ten concentrations 1 nM to 30 μM, duplicate, SD within ±10%, read-out: hCB1 IC50",28 nM
same,times more active than (−)-trans-Δ^9-THCV against CB1 receptor,human CB1 receptor; ratio of Ki,five times more active
same,change in rectal temperature,C57BL6/J mice [1]; Δ^9-THCB 10 mg/kg i.p.,−0.28 °C
same,change in rectal temperature,C57BL6/J mice [1]; Δ^9-THCB 20 mg/kg i.p.,0.40 °C
same,open field: distance travelled,"C57BL6/J mice [2]; Δ^9-THCB 10 mg/kg i.p., 30 min after injection, 15 min, n=4, vehicle 3283",3220 cm
same,open field: distance travelled,"C57BL6/J mice [2]; Δ^9-THCB 20 mg/kg i.p., 30 min after injection, 15 min, n=4, vehicle 3283",3591 cm
same,bar test: latency for moving from the catalepsy bar,"C57BL6/J mice [3]; Δ^9-THCB 10 mg/kg i.p., n=4, vehicle 3.50",3.0 s
same,bar test: latency for moving from the catalepsy bar,"C57BL6/J mice [3]; Δ^9-THCB 20 mg/kg i.p., n=4, vehicle 3.50",13.0 s
"CCCCCCCc1cc(O)c2c(c1)OC(C)(C)[C@@H]1CCC(C)=C[C@@H]21 [Δ^9-THCP, (6aR,10aR)-3-heptyl-6,6,9-trimethyl-6a,7,8,10a-tetrahydro-6H-benzo[c]chromen-1-ol]",Ki,human CB1 receptor,1.2 nM
same,binding affinity to CB1 among the compounds (in words),human CB1 receptor; comparison of alkyl chain homologues,highest binding affinity to CB1
same,times more active than (−)-trans-Δ^9-THC against CB1 receptor,human CB1 receptor; ratio of Ki,more than thirty-fold higher
same,times more active than (−)-trans-Δ^9-THC against CB1 receptor,"human CB1 receptor; ratio of Ki, listed as (−)-trans-Δ^9-THCP",33 times
same,times more active than (−)-trans-Δ^9-THCB against CB1 receptor,"human CB1 receptor; ratio of Ki, comparator Δ^9-THCB (Ki 15 nM)",13 times
same,times more active than (−)-trans-Δ^9-THCV against CB1 receptor,human CB1 receptor; ratio of Ki,63 times
same,change in body temperature,C57BL6/J mice [1]; Δ^9-THCP 2.5 mg/kg i.p.,−4.12 °C
same,change in body temperature,C57BL6/J mice [1]; Δ^9-THCP 5 mg/kg i.p.,−5.28 °C
same,change in body temperature,C57BL6/J mice [1]; Δ^9-THCP 10 mg/kg i.p.,−7.10 °C
same,open field: distance travelled,"C57BL6/J mice [2]; Δ^9-THCP 2.5 mg/kg i.p., n=5, vehicle 6888",4072 cm
same,open field: distance travelled,"C57BL6/J mice [2]; Δ^9-THCP 5 mg/kg i.p., n=5, vehicle 6888",127.5 cm
same,open field: distance travelled,"C57BL6/J mice [2]; Δ^9-THCP 10 mg/kg i.p., n=5, vehicle 6888",166.8 cm
same,bar test: latency for moving from the catalepsy bar,"C57BL6/J mice [3]; Δ^9-THCP 2.5 mg/kg i.p., 10 min cut-off, n=5, vehicle 15.20",346.1 s
same,bar test: latency for moving from the catalepsy bar,"C57BL6/J mice [3]; Δ^9-THCP 5 mg/kg i.p., 10 min cut-off, n=5, vehicle 15.20",493.4 s
same,bar test: latency for moving from the catalepsy bar,"C57BL6/J mice [3]; Δ^9-THCP 10 mg/kg i.p., 10 min cut-off, n=5, vehicle 15.20",484.5 s
